Source: patent US20110166112A1, “METHOD FOR STIMULATING PLATELET PRODUCTION” (Eisai, Inc., priority 2009, published 2011)

Test system: subjects with chronic ITP
Test: Combined 28-day and 6-month rollover studies of E5501: safety (TEAEs, serious TEAEs, thromboembolic events, neoplasms, liver toxicity, discontinuations)
Format: in vivo, human
Description: Primary Endpoint: The primary endpoint was to assess the safety and tolerability to E5501, including AEs and clinical laboratory parameters, over the 6 additional months of treatment.
In this way, safety data reflect each subject's complete duration of exposure to E5501 starting with lead-in the previous study and continuing into the current study.
Following Protocol Amendment 4, the current study contained a flexible dose regimen; therefore, this study was considered to have an open-label, uncontrolled, single-arm design. […] This was the method used to assess safety. • Grouping method B was based on both treatment received and day 28 platelet response to study drug in Study the previous study. This was the method used for the analysis of efficacy for the FAS and the SE population.
Overall Adverse Events. […] The primary focus is on summary statistics for the entire safety population and provides an overall safety profile for E5501. The summary statistics for each group, e.g., lower ⅓, middle ⅓ and upper ⅓ average daily dose levels, is secondary and provides further safety information across the 3 dose levels.

[1] = Lower ⅓ dose (2.5-<8.85 mg), N=22

For `O=C(Nc1nc(-c2cc(Cl)cs2)c(N2CCN(C3CCCCC3)CC2)s1)c1cnc(N2CCC(C(=O)O)CC2)c(Cl)c1` [E5501, 1-(3-chloro-5-{[4-(4-chlorothiophen-2-yl)-5-(4-cyclohexylpiperazin-1-yl)thiazol-2-yl]carbamoyl}pyridine-2-yl)piperidine-4-carboxylic acid], the “tolerability and safety profile” value (6-month treatment period) was “well tolerated and demonstrated a favorable safety profile”, the “Any Serious TEAE, n (%) of subjects” value (E5501 Total, N=64) was 5 (7.8) n (%) and the “Serious TEAE Cerebrovascular accident, n (%) of subjects” value (E5501 Total, N=64) was 1 (1.6) n (%). For the same molecule, the “Serious TEAE Chest pain, n (%) of subjects” value (E5501 Total, N=64) was 1 (1.6) n (%), the “Serious TEAE Diarrhoea, n (%) of subjects” value (E5501 Total, N=64) was 1 (1.6) n (%) and the “Serious TEAE Haemorrhage intracranial, n (%) of subjects” value (E5501 Total, N=64) was 1 (1.6) n (%). For the same molecule, the “Serious TEAE Lethargy, n (%) of subjects” value (E5501 Total, N=64) was 1 (1.6) n (%), the “Serious TEAE Mitral valve incompetence, n (%) of subjects” value (E5501 Total, N=64) was 1 (1.6) n (%) and the “Serious TEAE Myocardial infarction, n (%) of subjects” value (E5501 Total, N=64) was 1 (1.6) n (%). For the same molecule, the “Serious TEAE Nausea, n (%) of subjects” value (E5501 Total, N=64) was 1 (1.6) n (%), the “Serious TEAE Pelvic venous thrombosis, n (%) of subjects” value (E5501 Total, N=64) was 1 (1.6) n (%) and the “Serious TEAE Platelet count decreased, n (%) of subjects” value (E5501 Total, N=64) was 1 (1.6) n (%). For the same molecule, the “Serious TEAE Pneumonia, n (%) of subjects” value (E5501 Total, N=64) was 1 (1.6) n (%), the “Serious TEAE Pyrexia, n (%) of subjects” value (E5501 Total, N=64) was 1 (1.6) n (%) and the “Serious TEAE Thrombocytopenia, n (%) of subjects” value (E5501 Total, N=64) was 1 (1.6) n (%). For the same molecule, the “Serious TEAE Transient ischaemic attack, n (%) of subjects” value (E5501 Total, N=64) was 1 (1.6) n (%), the “Serious TEAE Vomiting, n (%) of subjects” value (E5501 Total, N=64) was 2 (3.1) n (%) and the “Serious TEAE, SOC Blood and lymphatic system disorders, n (%) of subjects” value (E5501 Total, N=64) was 1 (1.6) n (%). For the same molecule, the “Serious TEAE, SOC Cardiac disorders, n (%) of subjects” value (E5501 Total, N=64) was 2 (3.1) n (%), the “Serious TEAE, SOC Gastrointestinal disorders, n (%) of subjects” value (E5501 Total, N=64) was 2 (3.1) n (%) and the “Serious TEAE, SOC General disorders and administration site conditions, n (%) of subjects” value (E5501 Total, N=64) was 1 (1.6) n (%). The “Serious TEAE, SOC Infections and infestations, n (%) of subjects” value (E5501 Total, N=64) was 1 (1.6) n (%), the “Serious TEAE, SOC Investigations, n (%) of subjects” value (E5501 Total, N=64) was 1 (1.6) n (%) and the “Serious TEAE, SOC Nervous system disorders, n (%) of subjects” value (E5501 Total, N=64) was 3 (4.7) n (%). The “Serious TEAE, SOC Vascular disorders, n (%) of subjects” value (E5501 Total, N=64) was 1 (1.6) n (%), the “Discontinued 501-CL-004, PC increase to ≧500,000/mm^3” value (Full Analysis Set, Responders in previous study) was 0 n and the “Abdominal pain upper, n of subjects” value [1] was 0. For the same molecule, the “Any Serious TEAE, n (%) of subjects” value [1] was 1 (4.5) n (%), the “Any TEAE, % of subjects” value [1] was “(90.9) %” and the “Any TEAE, n of subjects” value [1] was 20. For the same molecule, the “Arthralgia, % of subjects” value [1] was “(4.5) %”, the “Arthralgia, n of subjects” value [1] was 1 and the “Asthenia, % of subjects” value [1] was “(13.6) %”. The “Asthenia, n of subjects” value [1] was 3, the “Back pain, % of subjects” value [1] was “(4.5) %” and the “Back pain, n of subjects” value [1] was 1. The “Constipation, n of subjects” value [1] was 0, the “Contusion, % of subjects” value [1] was “(13.6) %” and the “Contusion, n of subjects” value [1] was 3. The “Cough, % of subjects” value [1] was “(4.5) %”, the “Cough, n of subjects” value [1] was 1 and the “Deaths, n of subjects” value [1] was 0. The “Diarrhoea, % of subjects” value [1] was “(13.6) %”, the “Diarrhoea, n of subjects” value [1] was 3 and the “Dizziness, % of subjects” value [1] was “(4.5) %”. For the same molecule, the “Dizziness, n of subjects” value [1] was 1, the “Dose interruption due to TEAE, % of subjects” value [1] was “(13.6) %” and the “Dose interruption due to TEAE, n of subjects” value [1] was 3. The “Dyspnoea, % of subjects” value [1] was “(9.1) %”, the “Dyspnoea, n of subjects” value [1] was 2 and the “Ecchymosis, n of subjects” value [1] was 0. The “Epistaxis, % of subjects” value [1] was “(18.2) %”, the “Epistaxis, n of subjects” value [1] was 4 and the “Fatigue, % of subjects” value [1] was “(36.4) %”. For the same molecule, the “Fatigue, n of subjects” value [1] was 8, the “Gingival bleeding, % of subjects” value [1] was “(4.5) %” and the “Gingival bleeding, n of subjects” value [1] was 1. The “Headache, % of subjects” value [1] was “(18.2) %”, the “Headache, n of subjects” value [1] was 4 and the “Insomnia, % of subjects” value [1] was “(4.5) %”. The “Insomnia, n of subjects” value [1] was 1, the “Migraine, n of subjects” value [1] was 0 and the “Mouth haemorrhage, n of subjects” value [1] was 0. The “Nausea, n of subjects” value [1] was 0, the “Pain in extremity, % of subjects” value [1] was “(9.1) %” and the “Pain in extremity, n of subjects” value [1] was 2. The “Petechiae, % of subjects” value [1] was “(13.6) %”, the “Petechiae, n of subjects” value [1] was 3 and the “Platelet count increased, % of subjects” value [1] was “(9.1) %”. For the same molecule, the “Platelet count increased, n of subjects” value [1] was 2, the “Serious TEAE Cerebrovascular accident, n (%) of subjects” value [1] was 0 n (%) and the “Serious TEAE Chest pain, n (%) of subjects” value [1] was 0 n (%). The “Serious TEAE Diarrhoea, n (%) of subjects” value [1] was 0 n (%), the “Serious TEAE Haemorrhage intracranial, n (%) of subjects” value [1] was 0 n (%) and the “Serious TEAE Lethargy, n (%) of subjects” value [1] was 0 n (%). The “Serious TEAE Mitral valve incompetence, n (%) of subjects” value [1] was 0 n (%), the “Serious TEAE Myocardial infarction, n (%) of subjects” value [1] was 0 n (%) and the “Serious TEAE Nausea, n (%) of subjects” value [1] was 0 n (%). The “Serious TEAE Pelvic venous thrombosis, n (%) of subjects” value [1] was 0 n (%), the “Serious TEAE Platelet count decreased, n (%) of subjects” value [1] was 0 n (%) and the “Serious TEAE Pneumonia, n (%) of subjects” value [1] was 0 n (%). The “Serious TEAE Pyrexia, n (%) of subjects” value [1] was 0 n (%), the “Serious TEAE Thrombocytopenia, n (%) of subjects” value [1] was 1 (4.5) n (%) and the “Serious TEAE Transient ischaemic attack, n (%) of subjects” value [1] was 0 n (%). For the same molecule, the “Serious TEAE Vomiting, n (%) of subjects” value [1] was 0 n (%), the “Serious TEAE, % of subjects” value [1] was “(4.5) %” and the “Serious TEAE, SOC Blood and lymphatic system disorders, n (%) of subjects” value [1] was 1 (4.5) n (%). The “Serious TEAE, SOC Cardiac disorders, n (%) of subjects” value [1] was 0 n (%), the “Serious TEAE, SOC Gastrointestinal disorders, n (%) of subjects” value [1] was 0 n (%) and the “Serious TEAE, SOC General disorders and administration site conditions, n (%) of subjects” value [1] was 0 n (%). The “Serious TEAE, SOC Infections and infestations, n (%) of subjects” value [1] was 0 n (%), the “Serious TEAE, SOC Investigations, n (%) of subjects” value [1] was 0 n (%) and the “Serious TEAE, SOC Nervous system disorders, n (%) of subjects” value [1] was 0 n (%). The “Serious TEAE, SOC Vascular disorders, n (%) of subjects” value [1] was 0 n (%).
